Data on one molecule can be found in US8097440B1, “Engineered microorganisms capable of producing target compounds under anaerobic conditions” (Gevo, Inc., priority 2008, dated 2012).

In the test the target is T1, E. coli KARI Ec_IlvC variant Ec_IlvC^B8-his6 (Q110V, S78D), SEQ ID NO: 27 (Escherichia coli, UniProt P05793, Q110V/S78D).
T1 sequence (P05793 with tags, fused parts or gaps S78D/Q110V): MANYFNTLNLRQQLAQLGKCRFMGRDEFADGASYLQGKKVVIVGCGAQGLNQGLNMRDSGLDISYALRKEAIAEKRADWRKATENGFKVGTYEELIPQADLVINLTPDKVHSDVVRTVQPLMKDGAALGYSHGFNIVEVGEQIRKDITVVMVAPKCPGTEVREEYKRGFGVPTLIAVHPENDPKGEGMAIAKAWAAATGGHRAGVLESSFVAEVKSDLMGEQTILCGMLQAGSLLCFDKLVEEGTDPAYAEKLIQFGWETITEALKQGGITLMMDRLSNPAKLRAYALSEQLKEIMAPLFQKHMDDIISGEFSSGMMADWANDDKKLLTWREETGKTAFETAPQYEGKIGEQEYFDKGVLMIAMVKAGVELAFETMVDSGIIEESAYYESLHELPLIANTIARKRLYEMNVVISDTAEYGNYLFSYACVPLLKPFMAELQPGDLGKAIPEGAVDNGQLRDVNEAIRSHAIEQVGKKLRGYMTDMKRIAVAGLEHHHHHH
The test is described as follows: KARI cuvette assay, purified Ec_IlvC^B8-his6. It counts as biochemical. How it is done:
KARI cuvette assay: KARI activity was assayed kinetically by monitoring the decrease in NAD(P)H concentration by measuring the absorbance at 340 nm. A reaction buffer was prepared containing 250 mM potassium phosphate pH 7, 1 mM DTT and 10 mM MgCl2. Cell pellets were resuspended (0.25 g wet weight/mL buffer) in 250 mM potassium phosphate (KPi) buffer containing 1 mM DTT and 10 mM MgCl2. The resuspended cells were lysed by sonication for 1 min with a 50% duty cycle and pelleted at 11000×g and 4° C. for 15 min. A reaction mixture consisting of 910 μl reaction buffer, 50 μl acetolactate, and 20 μl lysate was prepared in a cuvette. The reaction was initiated by addition of 20 μL of 10 mM NAD(P)H. A substrate free control was conducted using reaction buffer without the addition of acetolactate.
Purification of KARI: Cell pellets used for purification were resuspended in purification buffer A (20 mM Tris, 20 mM imidazol, 100 mM NaCl, 10 mM MgCl2, pH 7.4). KARI was purified by IMAC (Immobilized metal affinity chromatography) over a 1 ml Histrap High Performance (histrap HP) column pre-charged with Nickel (GE Healthcare) using an Akta FPLC system (GE Healthcare). […]

The kcat/KM is the second-order rate constant that governs catalysis at low substrate concentration. `NC(=O)C1=CN([C@@H]2O[C@H](COP(=O)(O)OP(=O)(O)OC[C@H]3O[C@@H](n4cnc5c(N)ncnc54)[C@H](O)[C@@H]3O)[C@@H](O)[C@H]2O)C=CC1` [NADH, nicotinamide adenine dinucleotide]: the kcat/KM (purified, acetolactate as substrate) worked out at 31775 M⁻¹ s⁻¹. Under “relative to Ec_IlvC^his6 with NADPH”, the “(kcat/KM with NADH)/(kcat/KM of Ec_IlvC^his6 with NADPH)” value is reported as 36%.
